Key:
[1] = Dynamic moisture adsorption (DVS) hygroscopicity; format: physicochemical; details: for hygroscopic mass change (0%-40% RH) / hygroscopicity: water absorption at 40% RH / hygroscopic mass change (40%-80% RH) / hygroscopicity: water absorption at 80% RH: DVS, 25° C.
Description: DVS analysis: It was measured using DVS Intrinsic type dynamic moisture adsorption instrument from British SMS instrument company, measuring temperature: 25° C.; relative humidity: 0-95%.

[2] = Crystal form stability by XRPD after drying at 105° C. for one day; format: physicochemical
Description: (§1) X-ray powder diffraction analysis (XRPD), differential scanning calorimetry analysis (DSC), thermogravimetric analysis (TG), dynamic moisture adsorption analysis (DVS) and the like were made for the crystal form A of stevioside M prepared in the above examples. XRPD analysis: It was tested at room temperature using a Bruker D8 advance type diffractometer from Bruker Instruments, Germany, Cu-Kα ray (λ=1.5418 Å) was used, the 2θ angle was scanned from 3 to 40 degrees, and the scanning speed was 0.2 degrees/second.
The crystal form A of stevioside M prepared in the above examples was subjected to XRPD analysis after drying at 105° C. for one day, and the analysis results are shown in FIG. 7. It can be seen from FIG. 7 that the crystal form is unchanged, and the crystal form has good stability under high temperature conditions. The crystal form B of stevioside M is extremely unstable under high temperature conditions, and which is amorphous after drying for one day at 105° C., and the analysis results are shown in FIG. 8.

[3] = Physical stability of crystal form on storage at 25° C. and RH 60% for half a year (XRPD); format: physicochemical
Description: as §1
The crystal form A of stevioside M prepared in the above examples was stored at 25° C. and RH 60% for half a year, and the analysis results are shown in FIG. 9.

[4] = Chemical stability by HPLC after storage at 40° C. and RH 75% for half a year; format: physicochemical
Description: HPLC analysis: It was determined using a 1260 infinity liquid chromatograph from Agilent Technologies, Inc., USA. Sample solution preparation method: 25-50 mg of stevioside M sample was accurately weighed, and added into a 25 ml volumetric flask, then water-acetonitrile (7:3, v/v) solution was added, dissolved to volume. Preparation method of sodium phosphate buffer (specification: 10 mmol/L, pH: 2.6): dissolving 2.76 g of sodium dihydrogen phosphate into 2 liters of water, adding phosphoric acid, and the pH was adjusted to 2.6. Chromatographic column: Luna 5μ C18(2) 100 A column from Phenomenex. Injection volume: 5 μl. Flow rate: 1.0 mL/min. Column temperature: 40° C. Detector: UV detection at 210 nm. The elution gradient is shown as follows: […]

[5] = Water solubility / powder dissolution profile; format: physicochemical
Description: The crystal form A of stevioside M prepared in the above examples has good reproducibility and is stable in water solubility, and has a maximum solubility of about 3 mg/mL, and the equilibrium solubility is about 2 mg/mL at 24 hours. The powder dissolution profiles of the two batches of crystal form A of stevioside M prepared by the examples are shown in FIG. 11. The water solubility of crystal form A is similar to that of the stevioside D-stevioside M amorphous composition (about 3 mg/mL) disclosed in Patent CN 105722533 A, and both of which can stably increase the water solubility by 2-3 times.

[6] = water at room temperature, stevioside M content of 75% to 90%; cited from earlier work

| SMILES | hygroscopic mass change (0%-40% RH) [1] | hygroscopicity: water absorption at 40% RH [1] | hygroscopic mass change (40%-80% RH) ([1]; 40%-80% RH) | hygroscopicity: water absorption at 80% RH [1] | crystal form after drying (XRPD) [2] | hygroscopicity compared with the amorphous form and crystal form B ([1]; 25° C. and 40% RH) | hygroscopicity compared with amorphism under normal storage ([1]; 40%-80% RH) | mass percentage of moisture absorption within a relative humidity of 0-40% ([1]; dynamic moisture adsorption profile FIG. 4, RH 0-40%) | mass percentage of moisture absorption within a relative humidity of 40-80% ([1]; dynamic moisture adsorption profile FIG. 4, RH 40-80%) | crystal form after storage (XRPD) [3] | reduction of content (HPLC) after storage [4] | equilibrium solubility in water ([5]; at 24 hours) | maximum solubility in water ([5]; powder dissolution) | solubility in water [6] |
| --- | --- | --- | --- | --- | --- | --- | --- | --- | --- | --- | --- | --- | --- | --- |
| C=C1C[C@@]23CCC4[C@](C)(C(=O)OC5OC(CO)C(O)C(OC6OC(CO)C(O)C(O)C6O)C5OC5OC(CO)C(O)C(O)C5O)CCC[C@@]4(C)[C@@H]2CCC1(OC1OC(CO)C(O)C(OC2OC(CO)C(O)C(O)C2O)C1OC1OC(CO)C(O)C(O)C1O)C3 (stereo partly drawn) [crystal form B of stevioside M, 13-[(2-O-β-D-pyranoglucosyl-3-O-β-D-pyranoglucosyl-β-D-pyranoglucosyl)oxyl]-ent-kauran-16-en-19-oic acid-[(2-O-β-D-pyranoglucosyl-3-O-β-D-pyranoglucosyl-β-D-pyranoglucosyl) ester]] | 15.3% | 40% RH, 15.3% of | 2.1% | 80% RH, 17.4% of | amorphous | – | – | – | – | – | – | – | – | – |
| C=C1C[C@@]23CCC4[C@](C)(C(=O)OC5OC(CO)C(O)C(OC6OC(CO)C(O)C(O)C6O)C5OC5OC(CO)C(O)C(O)C5O)CCC[C@@]4(C)[C@@H]2CCC1(OC1OC(CO)C(O)C(OC2OC(CO)C(O)C(O)C2O)C1OC1OC(CO)C(O)C(O)C1O)C3 (stereo partly drawn) [amorphism of stevioside M, 13-[(2-O-β-D-pyranoglucosyl-3-O-β-D-pyranoglucosyl-β-D-pyranoglucosyl)oxyl]-ent-kauran-16-en-19-oic acid-[(2-O-β-D-pyranoglucosyl-3-O-β-D-pyranoglucosyl-β-D-pyranoglucosyl) ester], reference compound] | 11.0% | 40% RH, 11.0% of | 8.2% | 80% RH, 19.2% of | – | – | – | – | – | – | – | – | – | – |
| C=C1C[C@@]23CCC4[C@](C)(C(=O)OC5OC(CO)C(O)C(OC6OC(CO)C(O)C(O)C6O)C5OC5OC(CO)C(O)C(O)C5O)CCC[C@@]4(C)[C@@H]2CCC1(OC1OC(CO)C(O)C(OC2OC(CO)C(O)C(O)C2O)C1OC1OC(CO)C(O)C(O)C1O)C3 (stereo partly drawn) [crystal form A of stevioside M, 13-[(2-O-β-D-pyranoglucosyl-3-O-β-D-pyranoglucosyl-β-D-pyranoglucosyl)oxyl]-ent-kauran-16-en-19-oic acid-[(2-O-β-D-pyranoglucosyl-3-O-β-D-pyranoglucosyl-β-D-pyranoglucosyl) ester]] | 9.4% | 40% RH, 9.4% of | 4.6% | 80% RH, 14.0% of | unchanged | significantly less hygroscopic | less hygroscopic than amorphism | 0-9.4% | 9.4-14.0% | unchanged | less than 0.2% | about 2 mg/mL | about 3 mg/mL | – |
| C=C1C[C@@]23CCC4[C@](C)(C(=O)OC5OC(CO)C(O)C(OC6OC(CO)C(O)C(O)C6O)C5OC5OC(CO)C(O)C(O)C5O)CCC[C@@]4(C)[C@@H]2CCC1(OC1OC(CO)C(O)C(OC2OC(CO)C(O)C(O)C2O)C1OC1OC(CO)C(O)C(O)C1O)C3 (stereo partly drawn) [stevioside M, 13-[(2-O-β-D-pyranoglucosyl-3-O-β-D-pyranoglucosyl-β-D-pyranoglucosyl)oxyl]-ent-kauran-16-en-19-oic acid-[(2-O-β-D-pyranoglucosyl-3-O-β-D-pyranoglucosyl-β-D-pyranoglucosyl) ester]] | – | – | – | – | – | – | – | – | – | – | – | – | – | 0.1% to 0.15 |

Source: patent US11059843B2, “Stevioside M crystal form, preparation method therefor and use thereof” (ZHUCHENG HAOTIAN PHARM CO., LTD., priority 2017, dated 2021)
